According to patent US20110160399A1, “HISTONE MODIFICATION INHIBITOR SPECIFIC TO TARGET GENE” (NIHON UNIVERSITY, priority 2008, published 2011):

Experiments:
[1] = system: histone deacetylase (HDAC); experiment: HDAC activity assay (HDAC Fluorimetric Assay/Drug Discovery Kit); type: biochemical, human; settings: HDAC-containing HeLa cell nuclear fraction, 37°C for 1 hour, various concentrations, FIG. 2
Procedure: To verify whether the activity of histone deacetylase (HDAC) was inhibited by compounds composed of the synthesized SAHA derivatives and polyamides attached to each other, an HDAC Fluorimetric Assay/Drug Discovery Kit (BIOMOL international) was used in the experiment. Although details followed the instructions of the kit manufacturer, an HDAC-containing HeLa cell (human uterine cervical cancer cell line) nuclear fraction was added to an acetylation substrate and incubated at 37° C. for 1 hour in the presence of various concentrations of the synthesized compounds or trichostatin A (hereinafter referred to as TSA) used as a positive control, followed by addition of the developer included in the kit to stop the HDAC-catalyzed reaction. Then, the samples were transferred to a 96-well assay plate and measured with ARVO EX (Perkin Elmer) for emission at 460 nm from the reaction product upon excitation at 360 nm.

[2] = system: HeLa (human uterine cervical cancer cell line); experiment: Cell proliferation assay (WST-8) on HeLa cells; type: cell-based; settings: 72 hours, various concentrations, WST-8, FIG. 3, FIG. 4
Procedure: Next, the synthesized compounds were verified by WST-8 assay for their ability to suppress cancer cell proliferation.
Cell lines of HeLa (human uterine cervical cancer cell line), LOVO, RKO and SW480 (each of which was a human large bowel cancer cell line) were each cultured at 37° C. under 5% carbon dioxide conditions using Dulbecco's modified Eagle's medium (DMEM, Nacalai Tesque, Inc., Japan) supplemented with 10% fetal bovine serum (FBS: JRH bioscience, USA), antibiotics (50 U/ml penicillin and 50 μg/ml streptomycin) and 1 mM sodium pyruvate. Single-layered cells grown to 80-90% confluency on 10 cm cell culture dishes were washed with D-PBS(−) (Nacalai Tesque, Inc., Japan) and then released from the dishes by being treated with a phenol red-containing 2.5 g/L-Trypsine/1 mmol/L EDTA solution (Nacalai Tesque, Inc., Japan). The released cells were adjusted and maintained in fresh medium.
Each cell line seeded at 3×10^3 cells/well in a MICROTEST tissue culture plate (96 well, FALCON) was cultured at 37° C. under 5% carbon dioxide conditions for 24 hours, and then cultured in the presence of various concentrations of PI polyamide for an additional 72 hours. After completion of the culture, 10 μl of viable cell counting reagent SF (Nacalai Tesque, Inc., Japan) was added to each well and the absorbance at 450 nm was measured by ARVO EX (PerkinElmer). During the period from reagent addition until assay, incubation was continued at 37° C. in the presence of 5% CO2 until the absorbance reached about 1.2 to 2.0 in the control sample where only 50% DMSO was added to the cells.

[3] = system: MDA-MB231 breast cancer cells; experiment: Cell proliferation assay (II), trypan blue cell counts; type: cell-based; settings: after culture for 72 hours, FIG. 12
Procedure: MDA-MB231 breast cancer cells (1×10^5 cells) were cultured in 6 cm diameter dishes using RPMI-1640 medium containing fetal bovine serum at a final concentration of 10%. For culture, the medium was supplemented with or without each polyamide (SAHA+p16NU PIP or SAHA+non-targeting PIP) at the final concentration indicated below.
Starting from the initiation of culture, the following operation was repeated every 24 hours. Namely, after being observed under a microscope, the cells were harvested and counted to determine the numbers of viable cells […] and dead cells […]. As a result, proliferation of the cells and their survival rate were determined.

Compound: CC(/C=C/C(=O)NO)=C\[C@@H](C)C(=O)c1ccc(N(C)C)cc1 [TSA, trichostatin A, reference compound]
- anti-HDAC activity [1]: high activity
- suppression of HeLa cell proliferation [2]: proliferation inhibition

Compound: COC(=O)CCCCCCC(=O)Nc1ccc(C(=O)NCCC(=O)NCCC(=O)Nc2cn(C)c(C(=O)Nc3cc(C(=O)Nc4cc(C(=O)NCCC(=O)Nc5cn(C)c(C(=O)Nc6cc(C(=O)NCCCC(=O)Nc7cn(C)c(C(=O)Nc8cc(C(=O)NCCC(=O)Nc9cn(C)c(C(=O)Nc%10cn(C)c(C(=O)Nc%11cc(C(=O)NCCC(=O)NCCCN(C)C)n(C)c%11)n%10)n9)n(C)c8)n7)n(C)c6)n5)n(C)c4)n(C)c3)n2)cc1 [esterified SAHA+p16 PIP, 4-(8-methoxy-8-oxooctanamido)benzoyl-ββImPyPyβImPyγImPyβImIm PyβDp]
- anti-HDAC activity [1]: no HDAC activity
- anti-HDAC activity ([1]; listed as conjugate between esterified SAHA and p16 PIP): did not inhibit HDAC activity
- suppression of HeLa cell proliferation [2]: not suppressed

Compound: SAHA-(PEG) ββImPyPyβImPyγImPyβImImPyβDp [SAHA+ether linker+p16 PIP]
- anti-HDAC activity [1]: confirmed to have anti-HDAC activity

Compound: O=C(CCCCCCC(=O)Nc1ccccc1)NO [SAHA, suberoylanilide hydroxamic acid, reference compound]
- suppression of HeLa cell proliferation [2]: did not suppress

Compound: CN(C)CCCNC(=O)CCNC(=O)c1cc(NC(=O)c2cc(NC(=O)c3nc(NC(=O)CCCNC(=O)c4cc(NC(=O)c5nc(NC(=O)c6nc(NC(=O)CCNC(=O)CCNC(=O)c7ccc(NC(=O)CCCCCCC(=O)NO)cc7)cn6C)cn5C)cn4C)cn3C)cn2C)cn1C [SAHA+non-targeting PIP, SAHA-ββImPyPyγImImPyβDp]
- anti-HDAC activity [1]: confirmed to have anti-HDAC activity
- suppression of HeLa cell proliferation [2]: not suppressed

Compound: SAHA-H2NββPyPyβPyPyPyγImImImβPyImβDp [SAHA+p16NU PIP]
- cell proliferation significantly suppressed, compared to untreated group or 1 μM SAHA+non-targeting PIP ([3]; MDA-MB231, 1 μM): 83%
- cell proliferation significantly suppressed, compared to untreated group or 1 μM SAHA+non-targeting PIP ([3]; MDA-MB231, 2 μM): about 60%
